Measured values from US20230085307A1, “PYRIDAZINONE COMPOUND AND HERBICIDE” (NISSAN CHEMICAL CORPORATION, priority 2019, published 2023).

What was measured:
[1] = tested on: wild oat; test: Test Example 5: herbicidal effect by foliage application, plastic box (Table 20, symbol I); assay type: in vivo, wild oat (Avena fatua); details: foliage application, 320 g/ha, evaluated three weeks after application
Procedure, shortened: (§1)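 Sow seeds spot-wise in sterilized diluvial soil; cover with ~1.5 cm soil. Grow 14 days in greenhouse, 25° C. to 30° C. Spray foliage with emulsion diluted to predetermined amount. Rate effect after 3 weeks.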

[2] = tested on: oval-leafed pondweed; test: Test Example 1: herbicidal activity, application before weed generation under submerged conditions (Table 16, symbol C); assay type: in vivo, oval-leafed pondweed (Monochoria vaginalis)
Procedure, shortened: (§2)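 Alluvial soil was flooded to 4 cm depth, weed seeds were sown mixed and 2.5-leaf rice seedlings were transplanted. On sowing day, the compound's emulsion, diluted in water to a set dose, was applied to the water surface. Plants grew at 25–30 °C and were scored 0–5 after three weeks.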

[3] = tested on: southern crabgrass; test: Test Example 5: herbicidal effect by foliage application, plastic box (Table 20, symbol F); assay type: in vivo, southern crabgrass (Digitaria ciliaris); details: foliage application, 320 g/ha
Procedure, shortened: as §1

[4] = tested on: late watergrass; test: Test Example 1: herbicidal activity, application before weed generation under submerged conditions (Table 16, symbol A); assay type: in vivo, late watergrass (Echinochloa oryzicola)
Procedure, shortened: as §2

[5] = tested on: Italian ryegrass; test: Test Example 5: herbicidal effect by foliage application, plastic box (Table 20, symbol K); assay type: in vivo, Italian ryegrass (Lolium multiflorum); details: foliage application, 320 g/ha, evaluated three weeks after application
Procedure, shortened: as §1

[6] = tested on: redroot pigweed; test: Test Example 5: herbicidal effect by foliage application, plastic box (Table 20, symbol N); assay type: in vivo, redroot pigweed (Amaranthus retroflexus); details: foliage application, 320 g/ha
Procedure, shortened: as §1

[7] = tested on: blackgrass; test: Test Example 5: herbicidal effect by foliage application, plastic box (Table 20, symbol J); assay type: in vivo, blackgrass (Alopecurus myosuroides); details: foliage application, 320 g/ha, evaluated three weeks after application
Procedure, shortened: as §1

[8] = tested on: barnyard grass; test: Test Example 3: herbicidal effect by foliage application, Wagner pot (Table 18, symbol H); assay type: in vivo, barnyard grass (Echinochloa crus-galli)
Procedure, shortened: (§3)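 Plants were sown in alluvial soil held under 0.1–0.5 cm standing water and grown 14 days in a greenhouse at 25–30 °C. An emulsifiable formulation, water-diluted to the set dose, was then sprayed onto the foliage, and effects were scored three weeks later using previously defined criteria.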

[9] = tested on: green foxtail; test: Test Example 5: herbicidal effect by foliage application, plastic box (Table 20, symbol G); assay type: in vivo, green foxtail (Setaria viridis); details: foliage application, 320 g/ha
Procedure, shortened: as §1

[10] = tested on: windgrass; test: Test Example 5: herbicidal effect by foliage application, plastic box (Table 20, symbol L); assay type: in vivo, windgrass (Apera spica-venti); details: foliage application, 320 g/ha, evaluated three weeks after application
Procedure, shortened: as §1

[11] = tested on: rice flat sedge; test: Test Example 3: herbicidal effect by foliage application, Wagner pot (Table 18, symbol E); assay type: in vivo, rice flat sedge (Cyperus iria)
Procedure, shortened: as §3

[12] = tested on: barnyard grass; test: Test Example 5: herbicidal effect by foliage application, plastic box (Table 20, symbol H); assay type: in vivo, barnyard grass (Echinochloa crus-galli); details: foliage application, 320 g/ha
Procedure, shortened: as §1

[13] = tested on: persian speedwell; test: Test Example 5: herbicidal effect by foliage application, plastic box (Table 20, symbol R); assay type: in vivo, Persian speedwell (Veronica persica); details: foliage application, 320 g/ha, evaluated three weeks after application
Procedure, shortened: as §1

[14] = tested on: lambsquarters; test: Test Example 5: herbicidal effect by foliage application, plastic box (Table 20, symbol O); assay type: in vivo, lambsquarters (Chenopodium album); details: foliage application, 320 g/ha
Procedure, shortened: as §1

[15] = tested on: chickweed; test: Test Example 5: herbicidal effect by foliage application, plastic box (Table 20, symbol P); assay type: in vivo, common chickweed (Stellaria media); details: foliage application, 320 g/ha, evaluated three weeks after application
Procedure, shortened: as §1

[16] = tested on: velvetleaf; test: Test Example 5: herbicidal effect by foliage application, plastic box (Table 20, symbol M); assay type: in vivo, velvetleaf (Abutilon theophrasti); details: foliage application, 320 g/ha
Procedure, shortened: as §1

[17] = tested on: Chinese sprangletop; test: Test Example 3: herbicidal effect by foliage application, Wagner pot (Table 18, symbol D); assay type: in vivo, chinese sprangletop (Leptochloa chinensis)
Procedure, shortened: as §3

[18] = tested on: Japanese bulrush; test: Test Example 1: herbicidal activity, application before weed generation under submerged conditions (Table 16, symbol B); assay type: in vivo, Japanese bulrush (Schoenoplectus juncoides)
Procedure, shortened: as §2

[19] = tested on: lambsquarters; test: Test Example 4: herbicidal effect by soil treatment (Table 19, symbol O); assay type: in vivo, lambsquarters (Chenopodium album); details: amount of applied herbicide 320 g/ha
Procedure, shortened: (§4)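 Applied as a water-diluted emulsion, the compound was sprayed onto soil covering newly sown seeds. Evaluation came three weeks after application, in a greenhouse held at 25° C. to 30° C.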

[20] = tested on: southern crabgrass; test: Test Example 4: herbicidal effect by soil treatment (Table 19, symbol F); assay type: in vivo, southern crabgrass (Digitaria ciliaris); details: amount of applied herbicide 320 g/ha
Procedure, shortened: as §4

[21] = tested on: redroot pigweed; test: Test Example 4: herbicidal effect by soil treatment (Table 19, symbol N); assay type: in vivo, redroot pigweed (Amaranthus retroflexus); details: amount of applied herbicide 320 g/ha
Procedure, shortened: as §4

[22] = tested on: green foxtail; test: Test Example 4: herbicidal effect by soil treatment (Table 19, symbol G); assay type: in vivo, green foxtail (Setaria viridis); details: amount of applied herbicide 320 g/ha
Procedure, shortened: as §4

[23] = tested on: barnyard grass; test: Test Example 4: herbicidal effect by soil treatment (Table 19, symbol H); assay type: in vivo, barnyard grass (Echinochloa crus-galli); details: amount of applied herbicide 320 g/ha
Procedure, shortened: as §4

[24] = tested on: velvetleaf; test: Test Example 4: herbicidal effect by soil treatment (Table 19, symbol M); assay type: in vivo, velvetleaf (Abutilon theophrasti); details: amount of applied herbicide 320 g/ha
Procedure, shortened: as §4

[25] = evaluated three weeks after application
[26] = amount of applied herbicide 320 g/ha

COCCOCOc1c(C)nn(C)c(=O)c1-c1c(-c2ccc(OCC(=O)OC)cc2)sc2ccc(F)cc12 [2-071]
herbicidal effect on I: wild oat [1]: 0 (Herbicidal rate of 5% or less (almost no effect)) | Herbicidal effect on C: oval-leafed pondweed (grade 0-5) ([2]; 320 g/ha applied herbicide): 0 (Herbicidal rate of 5% or less (almost no effect)) | herbicidal effect on F: southern crabgrass [3, 25]: 0 (Herbicidal rate of 5% or less (almost no effect)) | Herbicidal effect on A: late watergrass (grade 0-5) ([4]; 320 g/ha applied herbicide): 3 (Herbicidal rate of 40% or more and less than 70%) | herbicidal effect on K: Italian ryegrass [5]: 0 (Herbicidal rate of 5% or less (almost no effect)) | herbicidal effect on N: redroot pigweed [6, 25]: 4 (Herbicidal rate of 70% or more and less than 90%) | herbicidal effect on J: blackgrass [7]: 0 (Herbicidal rate of 5% or less (almost no effect)) | herbicidal effect on H (barnyard grass), rating 0-5 ([8]; 320 g/ha): 2 (Herbicidal rate of 20% or more and less than 40%) | herbicidal effect on G: green foxtail [9, 25]: 0 (Herbicidal rate of 5% or less (almost no effect)) | herbicidal effect on L: windgrass [10]: 0 (Herbicidal rate of 5% or less (almost no effect)) | herbicidal effect on E (rice flat sedge), rating 0-5 ([11]; 320 g/ha): 2 (Herbicidal rate of 20% or more and less than 40%) | herbicidal effect on H: barnyard grass [12, 25]: 0 (Herbicidal rate of 5% or less (almost no effect)) | herbicidal effect on R: persian speedwell [13]: 0 (Herbicidal rate of 5% or less (almost no effect)) | herbicidal effect on O: lambsquarters [14, 25]: 3 (Herbicidal rate of 40% or more and less than 70%) | herbicidal effect on P: chickweed [15]: 3 (Herbicidal rate of 40% or more and less than 70%) | herbicidal effect on M: velvetleaf [16, 25]: 0 (Herbicidal rate of 5% or less (almost no effect)) | herbicidal effect on D (Chinese sprangletop), rating 0-5 ([17]; 320 g/ha): 3 (Herbicidal rate of 40% or more and less than 70%) | Herbicidal effect on B: Japanese bulrush (grade 0-5) ([18]; 320 g/ha applied herbicide): 0 (Herbicidal rate of 5% or less (almost no effect))

C#CCSc1ccc(-c2sc3ccc(F)cc3c2-c2c(O)c(C)nn(C)c2=O)cc1 [2-465]
Herbicidal effect, C: oval-leafed pondweed [2, 26]: 3 (Herbicidal rate of 40% or more and less than 70%) | herbicidal effect, O: lambsquarters [19]: 4 (Herbicidal rate of 70% or more and less than 90%) | F: southern crabgrass, herbicidal effect grade ([3]; three weeks after application): 2 (Herbicidal rate of 20% or more and less than 40%) | herbicidal effect, F: southern crabgrass [20]: 0 (Herbicidal rate of 5% or less (almost no effect)) | Herbicidal effect, A: late watergrass [4, 26]: 4 (Herbicidal rate of 70% or more and less than 90%) | herbicidal effect, N: redroot pigweed [21]: 5 (Herbicidal rate of 90% or more (almost completely withered)) | N: redroot pigweed, herbicidal effect grade ([6]; three weeks after application): 5 (Herbicidal rate of 90% or more (almost completely withered)) | herbicidal effect, G: green foxtail [22]: 0 (Herbicidal rate of 5% or less (almost no effect)) | herbicidal effect on H: barnyard grass [8, 26]: 5 (Herbicidal rate of 90% or more (almost completely withered)) | G: green foxtail, herbicidal effect grade ([9]; three weeks after application): 5 (Herbicidal rate of 90% or more (almost completely withered)) | herbicidal effect, H: barnyard grass [23]: 0 (Herbicidal rate of 5% or less (almost no effect)) | herbicidal effect on E: rice flat sedge [11, 26]: 5 (Herbicidal rate of 90% or more (almost completely withered)) | H: barnyard grass, herbicidal effect grade ([12]; three weeks after application): 5 (Herbicidal rate of 90% or more (almost completely withered)) | herbicidal effect, M: velvetleaf [24]: 0 (Herbicidal rate of 5% or less (almost no effect)) | O: lambsquarters, herbicidal effect grade ([14]; three weeks after application): 5 (Herbicidal rate of 90% or more (almost completely withered)) | M: velvetleaf, herbicidal effect grade ([16]; three weeks after application): 4 (Herbicidal rate of 70% or more and less than 90%) | herbicidal effect on D: Chinese sprangletop [17, 26]: 3 (Herbicidal rate of 40% or more and less than 70%) | Herbicidal effect, B: Japanese bulrush [18, 26]: 2 (Herbicidal rate of 20% or more and less than 40%)
